Laboratory results taken from patent US12227501B2, “3-amino-2-[2-(acylamino)pyridin-4-yl]-1,5,6,7-tetrahydro-4h-pyrrolo[3,2-c]pyridin-4-one as CSNK1 inhibitors” (Bayer Aktiengesellschaft, priority 2019, dated 2025).
Values joined by “and” are separate entries in the source; they are usually repeats but may differ in a detail not shown here. Equal values may be shown once. Read-outs that look alike come from different tables or passages of the source.

Tests used:
Assay type in all cases: biochemical
human CSNK1A1 [1] = molecular target: T1, human CSNK1A1 (Homo sapiens (Human), UniProt P48729); test: CSNK1A1 Assay 2 (ADP-Glo, 1 μM ATP); settings: substrate biotin-Ahx-KRRRAL-pS-VASLPGL, read-out: CSNK1A1 Assay 2 IC50 [mol/l] (median)
In short: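 Full-length human CSNK1A1 as an N-terminal GST fusion (baculovirus/insect cells) with biotinylated peptide substrate biotin-Ahx-KRRRAL-pS-VASLPGL and 1 μM ATP, in HEPES pH 7.5 buffer. Compounds were pre-incubated with enzyme (~0.0375 ng/μL) for 15 min at 22 °C. Generated ADP was read by ADP-Glo luminescence as the activity measure.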

human CSNK1A1 [2] = molecular target: T1, human CSNK1A1; test: CSNK1A1 High ATP Assay (ADP-Glo, 1 mM ATP); settings: read-out: CSNK1A1 high ATP assay IC50 [mol/l] (median)
In short: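 GST-tagged full-length human CSNK1A1 from baculovirus-infected insect cells (typically about 0.4 ng/μL), pre-incubated with compound 15 min at 22 °C. Reaction with biotinylated peptide biotin-Ahx-KRRRAL-pS-VASLPGL at 1 mM ATP. ADP formed read by ADP-Glo luminescence.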

human CSNK1D = human CSNK1D (Homo sapiens (Human), UniProt P48730); test: CSNK1D Assay (ADP-Glo, 1 μM ATP); settings: read-out: CSNK1D IC50 [mol/l] (median)
In short: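 GST-tagged full-length human CSNK1D from baculovirus-infected insect cells, typically ~0.5 ng/μL, with biotinylated peptide substrate and 1 μM ATP in HEPES pH 7.5 buffer. Compound is preincubated with enzyme 15 min at 22 °C. ADP formed is quantified by ADP-Glo luminescence.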

[3] = molecular target: wild-type Epidermal Growth Factor Receptor (EGFR) (Homo sapiens (Human), UniProt P00533); test: WT-EGFR Kinase Assay (TR-FRET, 2 mM ATP)
[4] = read-out: EGFR Wildtyp- 2 mM ATP IC50 [mol/l] (median)
[5] = EGFR Wildtyp- 2 mM ATP IC50 [mol/l] (median)

Chain of human CSNK1D (P48730 whole entry): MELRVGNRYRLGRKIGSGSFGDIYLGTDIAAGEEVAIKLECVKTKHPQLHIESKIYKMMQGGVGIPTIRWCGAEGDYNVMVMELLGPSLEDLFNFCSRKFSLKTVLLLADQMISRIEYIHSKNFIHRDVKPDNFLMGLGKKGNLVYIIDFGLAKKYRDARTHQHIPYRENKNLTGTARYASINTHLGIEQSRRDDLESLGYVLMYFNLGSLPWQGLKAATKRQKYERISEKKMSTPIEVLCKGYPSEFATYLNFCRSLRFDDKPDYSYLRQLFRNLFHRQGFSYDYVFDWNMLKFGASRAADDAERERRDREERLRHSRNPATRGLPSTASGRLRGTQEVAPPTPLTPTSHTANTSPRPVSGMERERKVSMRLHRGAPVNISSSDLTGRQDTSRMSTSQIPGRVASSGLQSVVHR
T1 sequence (P48729 whole entry, the tested form may be a part): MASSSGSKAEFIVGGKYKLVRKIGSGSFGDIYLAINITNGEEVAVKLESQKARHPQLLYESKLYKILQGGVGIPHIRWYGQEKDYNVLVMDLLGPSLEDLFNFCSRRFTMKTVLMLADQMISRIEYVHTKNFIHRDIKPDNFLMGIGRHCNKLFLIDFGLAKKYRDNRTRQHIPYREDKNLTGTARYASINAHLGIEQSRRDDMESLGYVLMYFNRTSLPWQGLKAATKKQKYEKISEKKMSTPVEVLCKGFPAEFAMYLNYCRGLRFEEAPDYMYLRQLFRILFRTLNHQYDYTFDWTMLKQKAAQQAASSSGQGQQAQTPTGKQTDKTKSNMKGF
Chain of wild-type Epidermal Growth Factor Receptor (EGFR) (P00533 669-1210): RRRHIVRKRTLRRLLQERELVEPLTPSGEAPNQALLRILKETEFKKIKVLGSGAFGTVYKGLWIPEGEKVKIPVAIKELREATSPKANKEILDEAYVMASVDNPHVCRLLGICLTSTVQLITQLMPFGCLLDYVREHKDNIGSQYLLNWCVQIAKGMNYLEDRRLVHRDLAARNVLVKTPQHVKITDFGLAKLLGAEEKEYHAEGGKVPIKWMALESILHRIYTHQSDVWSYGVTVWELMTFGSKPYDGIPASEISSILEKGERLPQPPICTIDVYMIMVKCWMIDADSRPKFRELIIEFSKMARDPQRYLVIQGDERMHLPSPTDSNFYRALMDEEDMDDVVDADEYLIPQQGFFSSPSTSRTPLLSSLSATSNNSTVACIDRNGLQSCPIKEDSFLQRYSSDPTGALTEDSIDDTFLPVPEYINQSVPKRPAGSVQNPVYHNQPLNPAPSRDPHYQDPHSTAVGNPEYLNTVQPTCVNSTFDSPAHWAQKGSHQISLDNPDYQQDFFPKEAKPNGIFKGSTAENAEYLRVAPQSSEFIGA

| Compound | IC50 (human CSNK1A1 [1]) | IC50 (human CSNK1A1 [2]) | IC50 (human CSNK1D) | IC50 [3, 4] | IC50 [3, 5] |
| --- | --- | --- | --- | --- | --- |
| O=C(Cc1ccc(F)cc1)Nc1cc(-c2[nH]c3c(c2Nc2ccccc2)C(=O)N(C2CC2)CC3)ccn1 [Example 7, N-[4-(3-anilino-5-cyclopropyl-4-oxo-4,5,6,7-tetrahydro-1H-pyrrolo[3,2-c]pyridin-2-yl)pyridin-2-yl]-2-(4-fluorophenyl)acetamide] | 0.00252 µM | 0.107 µM | 0.00848 µM | 2.74 µM | – |
| CC(C(=O)Nc1cc(-c2[nH]c3c(c2Nc2ccccc2)C(=O)N(C2CC2)CC3)ccn1)c1ccc(F)cc1 (stereo not drawn) [Example 8, N-[4-(3-anilino-5-cyclopropyl-4-oxo-4,5,6,7-tetrahydro-1H-pyrrolo[3,2-c]pyridin-2-yl)pyridin-2-yl]-2-(4-fluorophenyl)propanamide] | 0.0154 µM | 1.93 µM | 0.0379 µM | > 20 µM | – |
| O=C(Cc1ccc(F)cc1)Nc1cc(-c2[nH]c3c(c2Nc2ccccc2Cl)C(=O)NCC3)ccn1 [Example 13, N-{4-[3-(2-chloroanilino)-4-oxo-4,5,6,7-tetrahydro-1H-pyrrolo[3,2-c]pyridin-2-yl]pyridin-2-yl}-2-(4-fluorophenyl)acetamide] | 0.0019 µM | 0.037 µM | 0.00706 µM | 1.05 µM | – |
| CC(C(=O)Nc1cc(-c2[nH]c3c(c2Nc2ccccc2Cl)C(=O)NCC3)ccn1)c1ccc(F)cc1 (stereo not drawn) [Example 14, N-{4-[3-(2-chloroanilino)-4-oxo-4,5,6,7-tetrahydro-1H-pyrrolo[3,2-c]pyridin-2-yl]pyridin-2-yl}-2-(4-fluorophenyl)propanamide] | 0.00496 µM | 0.0739 µM | 0.014 µM | > 20 µM | – |
| CN1CCc2[nH]c(-c3ccnc(NC(=O)C(CO)c4ccc(F)cc4)c3)c(Nc3ccccc3)c2C1=O (stereo not drawn) [Example 17, N-[4-(3-anilino-5-methyl-4-oxo-4,5,6,7-tetrahydro-1H-pyrrolo[3,2-c]pyridin-2-yl)pyridin-2-yl]-2-(4-fluorophenyl)-3-hydroxypropanamide] | 0.0109 µM | 0.0665 µM | 0.0393 µM | > 20 µM | 14.5 µM and 14.3 µM |
| O=C(Cc1ccc(F)cc1)Nc1cc(-c2[nH]c3c(c2Nc2ccccc2)C(=O)N(CC2CC2)CC3)ccn1 [Example 20, N-{4-[3-anilino-5-(cyclopropylmethyl)-4-oxo-4,5,6,7-tetrahydro-1H-pyrrolo[3,2-c]pyridin-2-yl]pyridin-2-yl}-2-(4-fluorophenyl)acetamide] | 0.00972 µM | 1.66 µM | 0.0242 µM | > 20 µM | 18.1 µM |
| CCN1CCc2[nH]c(-c3ccnc(NC(=O)C(C)c4ccc(F)cc4)c3)c(Nc3ccccc3)c2C1=O (stereo not drawn) [Example 21, N-[4-(3-anilino-5-ethyl-4-oxo-4,5,6,7-tetrahydro-1H-pyrrolo[3,2-c]pyridin-2-yl)pyridin-2-yl]-2-(4-fluorophenyl)propanamide] | 0.00767 µM | 0.344 µM | 0.0215 µM | > 20 µM | – |
| CC(C)(O)CN1CCc2[nH]c(-c3ccnc(NC(=O)Cc4ccc(F)cc4)c3)c(Nc3ccccc3)c2C1=O [Example 23, N-{4-[3-anilino-5-(2-hydroxy-2-methylpropyl)-4-oxo-4,5,6,7-tetrahydro-1H-pyrrolo[3,2-c]pyridin-2-yl]pyridin-2-yl}-2-(4-fluorophenyl)acetamide] | 0.0267 µM | 2.62 µM | 0.0368 µM | 7.28 µM | – |
| CC(C(=O)Nc1cc(-c2[nH]c3c(c2Nc2ccccc2)C(=O)N(CC(C)(C)O)CC3)ccn1)c1ccc(F)cc1 (stereo not drawn) [Example 24, N-{4-[3-anilino-5-(2-hydroxy-2-methylpropyl)-4-oxo-4,5,6,7-tetrahydro-1H-pyrrolo[3,2-c]pyridin-2-yl]pyridin-2-yl}-2-(4-fluorophenyl)propanamide] | 0.0392 µM | > 5.71 µM and 4.24 µM | 0.064 µM | > 20 µM | – |
| CC(C(=O)Nc1cc(-c2[nH]c3c(c2Nc2ccccc2)C(=O)NC(C)(C)C3)ccn1)c1ccc(F)cc1 (stereo not drawn) [Example 27, N-[4-(3-anilino-6,6-dimethyl-4-oxo-4,5,6,7-tetrahydro-1H-pyrrolo[3,2-c]pyridin-2-yl)pyridin-2-yl]-2-(4-fluorophenyl)propanamide] | 0.0077 µM | 0.157 µM | 0.0362 µM | 18 µM | > 20 µM |
| CCN1CCc2[nH]c(-c3ccnc(NC(=O)Cc4ccc(F)cc4)c3)c(Nc3ccccc3)c2C1=O [Example 28, N-[4-(3-anilino-5-ethyl-4-oxo-4,5,6,7-tetrahydro-1H-pyrrolo[3,2-c]pyridin-2-yl)pyridin-2-yl]-2-(4-fluorophenyl)acetamide] | 0.0114 µM | 1.98 µM | 0.0712 µM | > 20 µM | – |
| CN1CCc2[nH]c(-c3ccnc(NC(=O)C(CCN4CCOCC4)c4ccccc4)c3)c(Nc3ccccc3)c2C1=O (stereo not drawn) [Example 30, N-[4-(3-anilino-5-methyl-4-oxo-4,5,6,7-tetrahydro-1H-pyrrolo[3,2-c]pyridin-2-yl)pyridin-2-yl]-4-(morpholin-4-yl)-2-phenylbutanamide] | 0.00801 µM | 0.485 µM | 0.0259 µM | > 20 µM | – |
| CN1CCc2[nH]c(-c3ccnc(NC(=O)C(CC(F)F)c4ccccc4)c3)c(Nc3ccccc3)c2C1=O (stereo not drawn) [Example 33, N-[4-(3-anilino-5-methyl-4-oxo-4,5,6,7-tetrahydro-1H-pyrrolo[3,2-c]pyridin-2-yl)pyridin-2-yl]-4,4-difluoro-2-phenylbutanamide] | 0.00615 µM | 0.0722 µM | 0.0181 µM | > 20 µM | – |
| CN1C(=O)c2c([nH]c(-c3ccnc(NC(=O)Cc4ccc(F)cc4)c3)c2Nc2ccccc2)CC1(C)C [Example 44, N-[4-(3-anilino-5,6,6-trimethyl-4-oxo-4,5,6,7-tetrahydro-1H-pyrrolo[3,2-c]pyridin-2-yl)pyridin-2-yl]-2-(4-fluorophenyl)acetamide] | 0.00482 µM | 0.671 µM | 0.0107 µM | 4.14 µM | – |
| CC1(C)Cc2[nH]c(-c3ccnc(NC(=O)Cc4ccncc4)c3)c(Nc3ccccc3)c2C(=O)N1 [Example 51, N-[4-(3-anilino-6,6-dimethyl-4-oxo-4,5,6,7-tetrahydro-1H-pyrrolo[3,2-c]pyridin-2-yl)pyridin-2-yl]-2-(pyridin-4-yl)acetamide] | 0.00487 µM | 0.0258 µM | 0.00667 µM | 0.563 µM | – |
| CC1(C)Cc2[nH]c(-c3ccnc(NC(=O)Cc4cccnc4)c3)c(Nc3ccccc3)c2C(=O)N1 [Example 52, N-[4-(3-anilino-6,6-dimethyl-4-oxo-4,5,6,7-tetrahydro-1H-pyrrolo[3,2-c]pyridin-2-yl)pyridin-2-yl]-2-(pyridin-3-yl)acetamide] | 0.00491 µM | 0.0254 µM | 0.00678 µM | 0.526 µM | – |
| COCCN1CCc2[nH]c(-c3ccnc(NC(=O)Cc4ccc(F)cc4)c3)c(Nc3ccccc3)c2C1=O [Example 53, N-{4-[3-anilino-5-(2-methoxyethyl)-4-oxo-4,5,6,7-tetrahydro-1H-pyrrolo[3,2-c]pyridin-2-yl]pyridin-2-yl}-2-(4-fluorophenyl)acetamide] | 0.00968 µM | 0.907 µM | 0.015 µM | 6.03 µM | – |
| O=C(Cc1ccc(F)cc1)Nc1cc(-c2[nH]c3c(c2Nc2ccccc2)C(=O)NC2(CCC2)C3)ccn1 [Example 57, N-[4-(3′-anilino-4′-oxo-1′,4′,5′,7′-tetrahydrospiro[cyclobutane-1,6′-pyrrolo[3,2-c]pyridin]-2′-yl)pyridin-2-yl]-2-(4-fluorophenyl)acetamide] | 0.00201 µM | 0.0103 µM | 0.0031 µM | 0.87 µM | – |
| CN1CCc2[nH]c(-c3ccnc(NC(=O)Cc4ccncc4)c3)c(Nc3ccccc3)c2C1=O [Example 64, N-[4-(3-anilino-5-methyl-4-oxo-4,5,6,7-tetrahydro-1H-pyrrolo[3,2-c]pyridin-2-yl)pyridin-2-yl]-2-(pyridin-4-yl)acetamide] | 0.00265 µM | 0.031 µM | 0.00551 µM | 1.2 µM | – |
| CN1CCc2[nH]c(-c3ccnc(NC(=O)Cc4ccc(S(C)(=O)=O)cc4)c3)c(Nc3ccccc3)c2C1=O [Example 65, N-[4-(3-anilino-5-methyl-4-oxo-4,5,6,7-tetrahydro-1H-pyrrolo[3,2-c]pyridin-2-yl)pyridin-2-yl]-2-[4-(methanesulfonyl)phenyl]acetamide] | 0.00151 µM | 0.0175 µM | 0.00546 µM | 0.49 µM | – |
| CN1CCc2[nH]c(-c3ccnc(NC(=O)Cc4ccc(C(F)(F)F)cc4)c3)c(Nc3ccccc3)c2C1=O [Example 66, N-[4-(3-anilino-5-methyl-4-oxo-4,5,6,7-tetrahydro-1H-pyrrolo[3,2-c]pyridin-2-yl)pyridin-2-yl]-2-[4-(trifluoromethyl)phenyl]acetamide] | 0.00275 µM | 0.0335 µM | 0.00557 µM | 8.55 µM | – |
